Experimental findings from patent US20250163057A1, “DCN-1 MODULATING COMPOUNDS AND METHODS OF USE THEREOF” (Cellarity, Inc., priority 2023, published 2025) are described below.

Read-outs that look alike come from different tables or passages of the source.

The subject of assay [1] is Cullin-3 (CUL3) neddylation. In words: AlphaLISA assay for Cullin-3 (CUL3) neddylation in TF 1 cells. Conditions: 3 hours treatment. Format: cell-based. In a few lines:
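Neddylated CUL3 was quantified by AlphaLISA in lysates of TF 1 cells exposed for 3 h to test compound in IMDM without supplements. Percent inhibition set between vehicle and 1 μM DI-1548 positive control; IC50 derived by Hill-equation fitting of dose-response curves.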
A general note: Bead proximity is the source of the signal in Alpha formats.

In assay [2] the target is DCN1 (DCUND1) protein PONY domain (Homo sapiens (Human), UniProt Q96GG9). Description: TR-FRET assay, DCN1 binding with FAM-labeled probe. In a few lines:
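First, the E. coli-derived PONY domain was biotinylated and paired with streptavidin Tb cryptate. Compounds in 0.1% DMSO were then added to DCN1 and FAM-probe (5 nM/20 nM, or 0.31 nM/900 nM total with 800 nM unlabelled) in TritonX, 200 mM NaCl buffer. Finally, TR-FRET ratios were recorded at 1, 5 and 24 hrs.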
A general note: TR-FRET usually uses a lanthanide donor and a delayed reading to cut background.

Setting [3] is: 24 hr after treatment with compound, read-out: TR FRET IC50 24 hr.
Setting [4] is: read-out: TR FRET IC50 1 hr, 1 hr after treatment with compound.
The mark [5] stands for this setting: TR FRET IC50 1 hr (nM), 1 hr after treatment with compound.

DCN1 (DCUND1) protein PONY domain, sequence (Q96GG9 60-248): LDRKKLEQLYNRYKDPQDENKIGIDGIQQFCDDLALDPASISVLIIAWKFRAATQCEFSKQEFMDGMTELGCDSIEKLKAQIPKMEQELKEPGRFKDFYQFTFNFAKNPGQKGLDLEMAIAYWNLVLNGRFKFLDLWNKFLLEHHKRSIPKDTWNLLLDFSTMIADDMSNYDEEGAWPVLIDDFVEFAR

The IC50 is the point on the concentration scale where inhibition reaches its midpoint. For the molecule `CCN1C(=O)[C@@H](NC(=O)c2cccc3ccoc23)[C@@H](C2CC2)c2c(C(=O)N3[C@H](C#N)C[C@H]4C[C@H]43)nn(C3CCOCC3)c21` [Compound I-707], the results for the IC50 in assay [1] (Homo sapiens), in assay [2] (setting [3]) and in assay [2] (setting [4]) were no more than 0.1 µM, no more than 200 nM and no more than 200 nM, respectively.
For `CCN1C(=O)[C@@H](NC(=O)c2cccc(C(F)(F)F)c2)[C@@H](C2CC2)c2c(C(=O)N3CCC=C3C#N)nn(C3CCOCC3)c21` [Compound I-437], the IC50 in assay [1] (Homo sapiens, TF-1, 3 h) was greater than 1 µM; in assay [2] (setting [3]), no more than 200 nM; in assay [2] (setting [5]), 1000 to 3000 nM.
With `CCN1C(=O)[C@@H](NC(=O)[C@@H]2CCc3nccc(=O)n32)[C@@H](C2CC2)c2c(C(=O)N3[C@H](C#N)C[C@H]4C[C@H]43)nn(C3CCOCC3)c21` [Compound I-548], the half-maximal inhibitory concentration (IC50) was greater than 1 µM in assay [1] (Homo sapiens, TF-1, 3 h); 1000 to 3000 nM in assay [2] (setting [3]); 1000 to 3000 nM in assay [2] (setting [5]).
Consider `C=C(CN1CCC(C)(O)C1)C(=O)NCc1nn(-c2ccccc2)c2c1[C@H](c1ccc(F)cc1)[C@H](NC(=O)c1cccc(C(F)(F)F)c1)C(=O)N2CC` (stereo partly drawn) [Compound I-25], for which the IC50 was no more than 0.1 µM in assay [1] (Homo sapiens, TF-1, 3 h); no more than 200 nM in assay [2] (setting [3]); no more than 200 nM in assay [2] (setting [4]).
Turning to `CCN1C(=O)[C@@H](NC(=O)c2cccc(C(F)(F)F)c2)[C@@H](C2CC2)c2c(C(=O)N3[C@@H]4C[C@@H]4C[C@@H]3C#N)nn(C3CCOCC3)c21` [Compound I-442], the IC50 is greater than 1 µM in assay [1] (Homo sapiens, TF-1, 3 h); 200 to 1000 nM in assay [2] (setting [3]); 1000 to 3000 nM in assay [2] (setting [5]).
Regarding `CCN1C(=O)[C@@H](NC(=O)c2cccc(C(F)(F)F)c2)[C@@H](c2ccc(F)cc2)c2c(C(=O)N3CCC=C3C#N)nn(C3CCOCC3)c21` [Compound I-631, N-((4S,5S)-3-(5-cyano-2,3-dihydro-1H-pyrrole-1-carbonyl)-7-ethyl-4-(4-fluorophenyl)-6-oxo-1-(tetrahydro-2H-pyran-4-yl)-4,5,6,7-tetrahydro-1H-pyrazolo[3,4-b]pyridin-5-yl)-3-(trifluoromethyl)benzamide], the IC50 was 0.1 to 1 µM in assay [1] (Homo sapiens, TF-1, 3 h); no more than 200 nM in assay [2] (setting [3]); 200 to 1000 nM in assay [2] (setting [5]).
`CCN1C(=O)[C@@H](NC(=O)c2cccc(C(F)(F)F)c2)[C@@H](c2ccc(F)cc2)c2c(C(=O)N(C)[C@H](C#N)CCN(C)C3COC3)nn(C3CCOCC3)c21` [Compound I-470]: the IC50 in assay [1] (Homo sapiens, TF-1, 3 h) is no more than 0.1 µM; in assay [2] (setting [3]), no more than 200 nM; in assay [2] (setting [4]), no more than 200 nM.
Turning to `CCN1C(=O)[C@@H](NC(=O)c2cccc(C(F)(F)F)c2)[C@@H](c2ccc(F)cn2)c2c([C@@H](C)NC#N)nn(-c3ccccc3)c21` [Compound I-439], the IC50 in assay [1] (Homo sapiens, TF-1, 3 h) is no more than 0.1 µM; in assay [2] (setting [3]), no more than 200 nM; in assay [2] (setting [4]) it was no more than 200 nM.
With `CCN1C(=O)[C@@H](NC(=O)c2cccc(C(F)(F)F)c2)[C@@H](C2CCCC2)c2c(C(=O)N(C)[C@H](C)C#N)nn(C3CCOCC3)c21` [Compound I-524], the IC50 in assay [1] (Homo sapiens, TF-1, 3 h) was no more than 0.1 µM; in assay [2] (setting [3]), no more than 200 nM; in assay [2] (setting [5]), 200 to 1000 nM.
Consider `CCN1C(=O)[C@@H](NC(=O)c2cccc(C(F)(F)F)c2)[C@@H](C2CC2)c2c(C(=O)N3CC(=O)C[C@H]3C#N)nn(C3CCOCC3)c21` [Compound I-626, N-((4S,5S)-3-((S)-2-cyano-4-oxopyrrolidine-1-carbonyl)-4-cyclopropyl-7-ethyl-6-oxo-1-(tetrahydro-2H-pyran-4-yl)-4,5,6,7-tetrahydro-1H-pyrazolo[3,4-b]pyridin-5-yl)-3-(trifluoromethyl)benzamide], for which the IC50 in assay [1] (Homo sapiens, TF-1, 3 h) was no more than 0.1 µM; in assay [2] (setting [3]) it was no more than 200 nM; in assay [2] (setting [4]), no more than 200 nM.
Regarding `CCN1C(=O)[C@@H](NC(=O)c2cccc3[nH]cnc23)[C@@H](C2CC2)c2c(C(=O)N3[C@H](C#N)C[C@H]4C[C@H]43)nn(C3CCOCC3)c21` [Compound I-446], the IC50 was greater than 1 µM in assay [1] (Homo sapiens, TF-1, 3 h); 1000 to 3000 nM in assay [2] (setting [3]); 1000 to 3000 nM in assay [2] (setting [5]).
As to `CCCn1nc(C(=O)N2CCC[C@H]2C#N)c2c1N(CC)C(=O)[C@@H](NC(=O)c1cccc(C(F)(F)F)c1)[C@H]2C1CC1` [Compound I-467], the IC50 was 0.1 to 1 µM in assay [1] (Homo sapiens, TF-1, 3 h); no more than 200 nM in assay [2] (setting [3]); 1000 to 3000 nM in assay [2] (setting [5]).
With `CCN1C(=O)[C@@H](NC(=O)c2cccc(C(F)(F)F)c2)[C@@H](c2ccc(F)cc2)c2c([C@@H](C)NC#N)nn(C3CCOCC3)c21` [Compound I-412], the IC50 is 0.1 to 1 µM in assay [1] (Homo sapiens, TF-1, 3 h); no more than 200 nM in assay [2] (setting [3]); no more than 200 nM in assay [2] (setting [4]).
For the molecule `CCN1C(=O)[C@H](NC(=O)c2cccc(C(F)(F)F)c2)[C@H](c2ccc(F)cc2)c2c(C(=O)N3CCC[C@H]3C#N)nn(C3CCOCC3)c21` [Compound I-401], the IC50 in assay [1] (Homo sapiens, TF-1, 3 h) was greater than 1 µM; in assay [2] (setting [3]), 1000 to 3000 nM; in assay [2] (setting [5]) it was 1000 to 3000 nM.
With `CCN1C(=O)[C@H](NC(=O)c2cccc(C(F)(F)F)c2)[C@H](C2CC2)c2c(C(=O)N(CC#N)C3CC3)nn(-c3ccccc3)c21` [Compound I-557], the concentration for half-maximal inhibition (IC50) in assay [1] (Homo sapiens, TF-1, 3 h) was greater than 1 µM; in assay [2] (setting [3]) it was 1000 to 3000 nM; in assay [2] (setting [5]) it was 1000 to 3000 nM.
With `CCN1C(=O)[C@@H](NC(=O)c2cccc(C(F)(F)F)c2)[C@@H](c2ccc(F)cc2)c2c(CN(CC#N)C(C)=O)nn(-c3ccccc3)c21` [Compound I-542, N-((4S,5S)-3-((N-(cyanomethyl)acetamido)methyl)-7-ethyl-4-(4-fluorophenyl)-6-oxo-1-phenyl-4,5,6,7-tetrahydro-1H-pyrazolo[3,4-b]pyridin-5-yl)-3-(trifluoromethyl)benzamide], the concentration for half-maximal inhibition (IC50) in assay [1] (Homo sapiens, TF-1, 3 h) fell in the range of 0.1 to 1 µM; in assay [2] (setting [3]) it was 200 to 1000 nM; in assay [2] (setting [5]) it was 1000 to 3000 nM.
For `CCN1C(=O)[C@@H](NC(=O)c2cccn(C3CC3)c2=O)[C@@H](C2CC2)c2c(C(=O)N3[C@H](C#N)C[C@H]4C[C@H]43)nn(C3CCOCC3)c21` [Compound I-625], the IC50 in assay [1] was greater than 1 µM; in assay [2] (setting [3]) it was 1000 to 3000 nM; in assay [2] (setting [5]), 1000 to 3000 nM.
In the case of `CCN1C(=O)[C@@H](NC(=O)c2cccc(C(F)(F)F)c2)[C@@H](C2CC2)c2c(C(=O)N3CCS(=O)(=O)C[C@H]3C#N)nn(-c3ccccc3)c21` [Compound I-659, N-((4S,5S)-3-((R)-3-cyano-1,1-dioxidothiomorpholine-4-carbonyl)-4-cyclopropyl-7-ethyl-6-oxo-1-phenyl-4,5,6,7-tetrahydro-1H-pyrazolo[3,4-b]pyridin-5-yl)-3-(trifluoromethyl)benzamide], the IC50 is no more than 0.1 µM in assay [1] (Homo sapiens, TF-1, 3 h); no more than 200 nM in assay [2] (setting [3]); no more than 200 nM in assay [2] (setting [4]).
In the case of `CCN1C(=O)[C@@H](NC(=O)c2cccc(C(F)(F)F)c2)[C@@H](c2ccc(F)cc2)c2c([C@@H](CCO)NC#N)nn(-c3ccccc3)c21` (mixture of isomers) [Compound I-567, N-(rac-(4S,5S)-3-((R)-1-cyanamido-3-hydroxypropyl)-7-ethyl-4-(4-fluorophenyl)-6-oxo-1-phenyl-4,5,6,7-tetrahydro-1H-pyrazolo[3,4-b]pyridin-5-yl)-3-(trifluoromethyl)benzamide], the IC50 was greater than 1 µM in assay [1] (Homo sapiens, TF-1, 3 h); 1000 to 3000 nM in assay [2] (setting [3]); 1000 to 3000 nM in assay [2] (setting [5]).
Regarding `CCN1C(=O)[C@@H](NC(=O)c2cccc(C(F)(F)F)c2)[C@H](c2ccc(F)cc2)c2c(CNC(=O)C(C)C#N)nn(-c3ccccc3)c21` (stereo partly drawn) [Compound I-641], the IC50 in assay [1] (Homo sapiens, TF-1, 3 h) is greater than 1 µM; in assay [2] (setting [3]), 200 to 1000 nM; in assay [2] (setting [5]) it was 200 to 1000 nM.
